Measured values: patent US20220125959A1, “PROSTATE-SPECIFIC MEMBRANE ANTIGEN (PSMA) INHIBITORS AS DIAGNOSTIC AND RADIONUCLIDE THERAPEUTIC AGENTS” (FIVE ELEVEN PHARMA INC., priority 2019, published 2022)

Columns and labels:
PSMA [1] = molecular target: T1, PSMA (Homo sapiens, UniProt Q04609); test: PSMA competitive binding, PC-3 PIP cells with [125I]MIP-1095; set-up: expressed in transfected cells; host or cells: PC-3 PIP cells; conditions: n = 3 (a: n = 2); read-out: IC50 *(PC-3 PIP cells and [125I]MIP-1095)
Experimental: (§1) In vitro binding assays were carried out to determine the PSMA binding affinity of various compounds. By incubating PSMA positive cells either with: 1). LNCaP with 0.2 nM [^68Ga]PSMA-11 or [^125I]MIP-1095, as the ligand, in the presence of 10 different concentrations of competing ligands; non-specific binding was defined with 20 μM 2-PMPA (2-(phosphonomethyl)pentanedioic acid); or 2). PC-3 PIP cells with [^125I]MIP-1095 (0.18 nM diluted in PBS) in presence of different concentration of test compounds ([…] diluted in PBS containing 0.1% bovine serum albumin). Nonspecific binding (NSB) was defined with 2 μM the known PSMA inhibitor, PSMA-617. After incubation at 37° C. for 1 h, the bound and free fractions were separated by vacuum filtration through GF/B filters using a Brandel M-24R cell harvester. The filters were washed twice with cold Tris-HCl buffer (50 mM, pH=7.4), and the radioactivity on the filters was counted in a gamma counter (Wizard^2, Perkin-Elmer) with 50% efficiency. The nonspecific bound was less than 10% of the total bound. Data were analyzed using GraphPad Prism 6.0 with a nonlinear regression algorithm to obtain the half maximal inhibitory concentration (IC50).
(§2) The binding affinities to PSMA of the test compounds were measured by a competitive binding assay using either LNCap or PC-3 PIP cells suspension and the known radiotracers known to have high affinity and specificity to PSMA, [^68Ga]PSMA-11 or [^125I]MIP-1095. The IC50 values of four iodinated compounds, three DOTA, DOTAG and DOTA(GA)2 related compounds and two known PSMA inhibitors are shown in Table 1. Complexes of compound 4 and natural Ga and natural Lu were also tested. […] After labeling with radioisotope they are expected to bind to the tumor tissues over expressing PSMA binding sites.
Target sequence in this assay (Q04609 whole entry, species assumed): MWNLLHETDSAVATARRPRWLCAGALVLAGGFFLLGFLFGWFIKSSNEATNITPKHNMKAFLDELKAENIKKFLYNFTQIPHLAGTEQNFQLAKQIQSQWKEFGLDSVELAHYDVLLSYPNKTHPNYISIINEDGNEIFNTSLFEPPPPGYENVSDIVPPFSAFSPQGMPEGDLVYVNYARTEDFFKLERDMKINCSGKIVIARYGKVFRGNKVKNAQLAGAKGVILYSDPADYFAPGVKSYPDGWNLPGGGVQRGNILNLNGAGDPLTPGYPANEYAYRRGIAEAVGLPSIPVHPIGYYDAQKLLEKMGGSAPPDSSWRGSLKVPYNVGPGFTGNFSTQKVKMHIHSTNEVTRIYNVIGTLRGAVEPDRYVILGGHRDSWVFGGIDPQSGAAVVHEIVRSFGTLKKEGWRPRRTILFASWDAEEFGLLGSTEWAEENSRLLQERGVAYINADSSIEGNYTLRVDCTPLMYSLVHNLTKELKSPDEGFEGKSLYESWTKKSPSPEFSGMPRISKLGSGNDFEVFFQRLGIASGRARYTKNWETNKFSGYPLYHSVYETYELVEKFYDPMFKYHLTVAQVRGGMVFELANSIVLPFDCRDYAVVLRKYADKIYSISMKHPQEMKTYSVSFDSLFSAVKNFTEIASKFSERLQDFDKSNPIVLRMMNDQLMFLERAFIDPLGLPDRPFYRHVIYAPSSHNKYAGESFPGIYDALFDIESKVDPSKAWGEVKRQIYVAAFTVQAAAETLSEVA

PSMA [2] = molecular target: T1, PSMA; test: PSMA competitive binding, LNCaP cells with [68Ga]PSMA-11; set-up: LNCaP with 0.2 nM; endogenous in cells; host or cells: LNCaP cells (suspension); conditions: n = 3; read-out: IC50 (LNCaP human PCa cells and [68Ga]PSMA-11)
Experimental: as §1, §2
Target sequence in this assay (Q04609 whole entry): as the sequence (Q04609 whole entry, species assumed) above

PSMA [3] = molecular target: T1, PSMA; set-up: expressed in transfected cells; host or cells: PC-3 PIP cells; conditions: ^131I labeled MIP-1095; read-out: PSMA binding affinity Ki; cited from earlier work
Target sequence in this assay (Q04609 whole entry, species assumed): as above

SMILES	IC50 (PSMA [1]) [µM]	IC50 (PSMA [2]) [µM]	Ki (PSMA [3]) [µM]
O=C(O)CC[C@H](NC(=O)N[C@@H](CCCCNC(=O)[C@H](Cc1ccccc1)NC(=O)COc1ccc(C[C@H](NC(=O)CNC(=O)CCC(C(=O)O)N2CCN(CC(=O)O)CCN(C(CCC(=O)NCCOCCOCCNC(=O)CCCc3ccc(I)cc3)C(=O)O)CCN(CC(=O)O)CC2)C(=O)O)cc1)C(=O)O)C(=O)O (stereo partly drawn) [Compound 7, (4S,11S,15S)-4-benzyl-1-(4-((2S)-2-carboxy-2-(2-(4-carboxy-4-(7-(1-carboxy-18-(4-iodophenyl)-4,15-dioxo-8,11-dioxa-5,14-diazaoctadecyl)-4,10-bis(carboxymethyl)-1,4,7,10-tetraazacyclododecan-1-yl)butanamido)acetamido)ethyl)phenoxy)-2,5,13-trioxo-3,6,12,14-tetraazaheptadecane-11,15,17-tricarboxylic acid]	0.0136 ± 0.00102	0.0154 ± 0.0008	–
O=C(O)CC[C@H](NC(=O)N[C@@H](CCCCNC(=O)[C@H](Cc1ccccc1)NC(=O)COc1ccc(C[C@H](NC(=O)CNC(=O)CCC(C(=O)O)N2CCN(CC(=O)O)CCN(CC(=O)O)CCN(CC(=O)O)CC2)C(=O)NCC(=O)NC(P(=O)(O)O)P(=O)(O)O)cc1)C(=O)O)C(=O)O (stereo partly drawn) [Compound 51, (((1S)-1-Carboxy-5-((2S)-2-(2-(4-((2S)-2-(2-(4-carboxy-4-(4,7,10-tris(carboxymethyl)-1,4,7,10-tetraazacyclododecan-1-yl)butanamido)acetamido)-3-((2-((diphosphonomethyl)amino)-2-oxoethyl)amino)-3-oxopropyl)phenoxy)acetamido)-3-phenylpropanamido)pentyl)carbamoyl)-L-glutamic acid]	–	0.0107 ± 0.0016	–
O=C(O)CC[C@H](NC(=O)N[C@@H](CCCCNC(=O)Nc1ccc(I)cc1)C(=O)O)C(=O)O [MIP-1095]	–	–	0.0046

Continued, in another order:

IC50 (PSMA [1]) [µM]	IC50 (PSMA [2]) [µM]	SMILES	Ki (PSMA [3]) [µM]
0.0339 ± 0.00238	0.0287 ± 0.0017	O=C(O)CCC(C(=O)O)N1CCN(CC(=O)O)CCN(C(CCC(=O)NCC(=O)N[C@@H](Cc2ccc(OCC(=O)N[C@@H](Cc3ccccc3)C(=O)NCCCC[C@H](NC(=O)N[C@@H](CCC(=O)O)C(=O)O)C(=O)O)cc2)C(=O)O)C(=O)O)CCN(CC(=O)O)CC1 (stereo partly drawn) [Compound 4, (4S,11S,15S)-4-benzyl-1-(4-((2S)-2-(2-(4-(4,10-bis(carboxymethyl)-7-(1,3-dicarboxypropyl)-1,4,7,10-tetraazacyclododecan-1-yl)-4-carboxybutanamido)acetamido)-2-carboxyethyl)phenoxy)-2,5,13-trioxo-3,6,12,14-tetraazaheptadecane-11,15,17-tricarboxylic acid]	–
0.0109 ± 0.00037	0.0111 ± 0.0008	O=C(O)CC[C@H](NC(=O)N[C@@H](CCCCNC(=O)[C@H](Cc1ccc2ccccc2c1)NC(=O)[C@H]1CC[C@H](CNC(=O)CN2CCN(CC(=O)O)CCN(CC(=O)O)CCN(CC(=O)O)CC2)CC1)C(=O)O)C(=O)O [PSMA-617, 2-[3-(1-Carboxy-5-(3-naphthalen-2-yl-2-[(4-([2-(4,7,10-tris-carboxymethyl-1,4,7,10-tetraaza-cyclododec-1-yl)-acetylamino]-methyl)-cyclohexanecarbonyl)-amino]-Propionylamino)-pentyl)-ureido]-pentanedioic acid, reference compound]	–
